One may read the IC50 as the concentration at which inhibition is half-maximal. Higher therefore signals weaker potency. The term melting point denotes the temperature, or range, at which the solid turns liquid. As a reminder, the inhibition is the drop in the measured response relative to a control, in per cent. Read a high inhibition as strong suppression.

Our source for the IC50, melting point and inhibition values is patent US20020022647A1, “2-(4-bromo or 4-iodo phenylamino) benzoic acid derivatives” (priority 1997, published 2002).

The target in data set [1] is GST-MEK (p45MEK) and GST-MAPK (p44MAP kinase) (Homo sapiens, UniProt Q02750). As to the kind of experiment: Cascade assay for inhibitors of the MAP kinase pathway (In Vitro). Type of data set: biochemical. Particulars: incorporation of 32P into myelin basic protein. How it is done: Cascade Assay for Inhibitors of the MAP Kinase Pathway
Chain of GST-MEK (p45MEK) and GST-MAPK (p44MAP kinase) (Q02750 whole entry, the tested form may be a part): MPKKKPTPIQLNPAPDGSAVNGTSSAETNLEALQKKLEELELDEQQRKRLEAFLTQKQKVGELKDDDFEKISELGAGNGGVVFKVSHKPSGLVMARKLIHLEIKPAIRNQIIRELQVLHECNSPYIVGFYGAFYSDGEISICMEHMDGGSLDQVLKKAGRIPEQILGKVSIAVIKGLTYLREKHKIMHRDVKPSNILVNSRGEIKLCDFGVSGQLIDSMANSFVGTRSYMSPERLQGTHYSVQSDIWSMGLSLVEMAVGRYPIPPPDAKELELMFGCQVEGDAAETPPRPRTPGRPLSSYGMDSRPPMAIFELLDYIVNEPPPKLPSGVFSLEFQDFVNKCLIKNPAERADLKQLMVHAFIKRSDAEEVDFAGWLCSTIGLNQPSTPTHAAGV
Incorporation of ^32P into myelin basic protein (MBP) was assayed in the presence of a glutathione S-transferase fusion protein containing p44MAP kinase (GST-MAPK) and a glutathione S-transferase fusion protein containing p45MEK (GST-MEK). The assay solution contained 20 mM HEPES, pH 7.4, 10 mM MgCl2, 1 mM MnCl2, 1 mM EGTA, 50 μM [γ-^32P]ATP, 10 μg GST-MEK0.5 μg GST-MAPK and 40 μg MBP in a final volume of 100 μL. Reactions were stopped after 20 minutes by addition of trichloroacetic acid and filtered through a GF/C filter mat. ^32P retained on the filter mat was determined using a 1205 Betaplate. Compounds were assessed at 10 μM for ability to inhibit incorporation of ^32P.
To ascertain whether compounds were inhibiting GST-MEK or GST MAPK, two additional protocols were employed. In the first protocol, compounds were added to tubes containing GST-MEK, followed by addition of GST-MAPK, MBP and [γ-^32P]ATP. In the second protocol, compounds were added to tubes containing both GST-MEK and GST-MAPK, followed by MBP and [γ-^32P]ATP.

The test system of data set [2] is activation of MAP kinase in whole cells. As to the kind of experiment: In Vivo (Cell Culture): whole cell MAP kinase assay. Type of data set: cell-based. The protocol:
Whole Cell MAP Kinase Assay
To determine if compounds were able to block activation of MAP kinase in whole cells, the following protocol was used: Cells were plated in multi-well plates and grown to confluence. Cells were then serum-deprived overnight. Cells were exposed to the desired concentrations of compound or vehicle (DMSO) for 30 minutes, followed by addition of a growth factor, for example, PDGF (100 ng/mL). After a 5-minute treatment with the growth factor, cells were washed with PBS, then lysed in a buffer consisting of 70 mM NaCl, 10 mM HEPES (pH 7.4), 50 mM glycerol phosphate, and 1% Triton X-100. Lysates were clarified by centrifugation at 13,000× g for 10 minutes. Five micrograms of the resulting supernatants were incubated with 10 μg microtubule associated protein-2 (Map2) for 15 minutes at 30° C. in a final volume of 25 μL containing 50 mM Tris (pH 7.4), 10 mM MgCl2, 2 mM EGTA and 30 uM [γ-^32P]ATP. Reactions were terminated by addition of Laemmli sample buffer. Phosphorylated Map2 was resolved on 7.5% acrylamide gels and incorporated radioactivity determined by autoradiography and subsequent excision of the bands followed by scintillation counting.

Regarding `Cc1cc(I)ccc1Nc1ccc(Cl)cc1C(=O)NCCO` [Example 31, 5-Chloro-N-(2-hydroxyethl)-2-(4-iodo-2-methyl-phenylamino)-benzamide], the melting point is 120 to 121 °C. In data set [1], this compound gave an IC50 of 226 nM.
As to `Cc1cc(I)ccc1Nc1ccc(Cl)cc1C(=O)NCC(=O)O` [Example 40, [5-Chloro-2-(4-iodo-2-methyl-phenylamino)-benzoylamno]-acetic acid], in data set [2] (at 30 μM), the inhibition at 30 µM turned out to be 30%. This compound had an IC50 in data set [1] of 651 nM.
Turning to `Cc1cc(I)ccc1Nc1cc(F)ccc1CO` [Example 49, 4-Fluoro-2-(4-iodo-2-methyl-2henylamino)-benzyl alcohol], the melting point was 99 to 100.5 °C. In data set [1], this compound gave an IC50 of 418 nM.
Consider `Cc1cc(I)ccc1Nc1c(C(=O)NCCO)cc(Br)c(F)c1F` [Example 53, 5-Bromo-3,4-difluoro-N-(2-hydroxy-ethyl)-2-(4-iodo-2-methyl-phenylamino)-benzamide], for which the IC50 in data set [2] was determined as 540 nM; in data set [1], 47 nM.
`Cc1cc(I)ccc1Nc1c(C(=O)NCCN2CCCCC2)cc(Br)c(F)c1F` [Example 55, 5-Bromo-3,4-difluoro-2-(4-iodo-2-methyl-phenylamino)-N-(2-piperidin-1-yl-ethyl)-benzamide] returned an IC50 in data set [1] of 114 nM. This lies in the sub-micromolar range.
The same measure, in the same setting: with `Cc1cc(I)ccc1Nc1cc(F)ccc1C(=O)NCC(O)CO` (stereo not drawn) [Example 57, N-(2,3-Dihydroxy-propyl)-4-fluoro-2-(4-iodo-2-methyl-phenylamino)-benzamide] the figure was 399 nM; with `Cc1cc(I)ccc1Nc1ccc(F)cc1C(=O)NCCCN1CCN(CCO)CC1` [Example 90, 5-Fluoro-N-{3-[4-(2-hydroxy-ethyl)-piperazin-1-yl]-propyl}-2-(4-iodo-2-methyl-phenylamino)-benzamide], 604 nM; with `Cc1cc(I)ccc1Nc1ccc([N+](=O)[O-])cc1C(=O)NCc1ccncc1` [Example 91, 2-(4-Iodo-2-methyl-phenylamino)-5-nitro-N-pyridin-4-yl methyl-benzamide], 2071 nM.
On the same count and under the same terms, the value for `Cc1cc(I)ccc1Nc1ccc(Br)cc1C(=O)NCCCN1CCN(CCO)CC1` [Example 92, 5-Bromo-N-{3-[4-(2-hydroxy-ethyl)-piperazin-1-yl]-propyl}-2-(4-iodo-2-methyl-phenylamino)-benzamide] was 253 nM; that for `CCN(CC)CCNC(=O)c1cc(Cl)ccc1Nc1ccc(I)cc1C` [Example 93, 5-Chloro-N-(2-diethylamino-ethyl)-2-(4-iodo-2-methyl-phenylamino)-benzamide] was 521 nM; that for `Cc1cc(I)ccc1Nc1ccc([N+](=O)[O-])cc1C(=O)N1CCC(O)C1` (stereo not drawn) [Example 95, (3-Hydroxy-pyrrolidin-1-yl)-[2-(4-iodo-2-methyl-phenylamino)-5-nitro-phenyl]-] was 1001 nM.
For `Cc1cc(I)ccc1Nc1ccc(Cl)cc1C(=O)NCCN1CCCC1` [Example 96, 5-Chloro-2-(4-iodo-2-methyl-phenylamino)-N-(2-pyrrolidin-1-yl-ethyl)-benzamide], the IC50 in data set [1] was 374 nM.
The same measure, in the same setting: the value for `Cc1cc(I)ccc1Nc1ccc(Br)cc1C(=O)N1CCC(O)C1` (stereo not drawn) [Example 100, [5-Bromo-2-(4-iodo-2-methyl-phenylamino)-phenyl]-(3-hydroxy-pyrrolidin-1-yl)-] was 1994 nM; that for `Cc1cc(I)ccc1Nc1ccc([N+](=O)[O-])cc1C(=O)NC1CCCCC1` [Example 184, N-Cyclohexyl-2-(4-iodo-2-methyl-phenylamino)-5-nitro-benzamide] was 278 nM.
Regarding `Cc1cc(I)ccc1Nc1ccc(F)cc1C(=O)NOCc1ccccc1` [Example 186, N-Benzy1oxy-5-fluoro-2-(4-iodo-2-methyl-phenylamino)-benzamide], the IC50 in data set [1] came out at 555 nM.
`Cc1cc(I)ccc1Nc1ccc(Cl)cc1C(=O)NCCO` [Example 187, 5-Chloro-N-(2-hydroxy-ethyl)-2-(4-iodo-2-methyl-phenylamino)-benzamide]: the IC50 in data set [1] was 561 nM.
In data set [1], `Cc1cc(I)ccc1Nc1ccc(Br)cc1C(=O)NCCO` [Example 188, 5-Bromo-N-(2-hydroxy-ethyl)-2-(4-iodo-2-methyl-phenylamino)-benzamide] yielded an IC50 of 771 nM.
Same read-out and setting: the value for `Cc1cc(I)ccc1Nc1ccc([N+](=O)[O-])cc1C(=O)N(C)c1ccccc1` [Example 189, 2-(4-Iodo-2-methyl-phenylamino)-N-methyl-5-nitro-N-phenyl-benzamide] was 859 nM; that for `Cc1cc(I)ccc1Nc1ccc(Cl)cc1C(=O)N(C)c1ccccc1` [Example 190, 5-Chloro-2-(4-iodo-2-methyl-phenylamino)-N-methyl-N-phenyl-benzamide] was 921 nM; that for `Cc1cc(I)ccc1Nc1ccc(I)cc1C(=O)NCCO` [Example 191, N-(2-Hydroxy-ethyl)-5-iodo-2-(4-iodo-2-methyl-phenylamino)-benzamide] was 1355 nM.
Same read-out and setting: with `Cc1cc(I)ccc1Nc1ccc(Cl)cc1C(=O)NC1CC1` [Example 192, 5-Chloro-N-cyclopropyl-2-(4-iodo-2-methyl-phenylamino)-benzamide] the figure was 1797 nM; with `C=CCNC(=O)c1cc(Cl)ccc1Nc1ccc(I)cc1C` [Example 193, N-Allyl-5-chloro-2-(4-iodo-2-methyl-phenylamino)-benzamide], 2902 nM.
In turn, `Cc1cc(I)ccc1Nc1ccc(F)cc1C(=O)N(C)c1ccccc1` [Example 194, 5-Fluoro-2-(4-iodo-2-methyl-phenylamino)-N-methyl-N-phenyl-benzamide] gave an IC50 in data set [1] of 4952 nM. This IC50 is about 1.7-fold higher than that of the compound before.
Same read-out and setting: the value for `Cc1cc(I)ccc1Nc1ccc([N+](=O)[O-])cc1C(=O)NCCO` [Example 195, N-(2-Hydroxy-ethyl)-2-(4-iodo-2-methyl-phenylamino)-s-nitro-benzamide] was 12800 nM.
As to `Cc1cc(I)ccc1Nc1ccccc1-c1nnn[nH]1` [Example 208], the melting point is 231 °C (dec.). The compound also gave an IC50 in data set [1] of 1215 nM.
On to `Cc1cc(I)ccc1Nc1ccc([N+](=O)[O-])cc1-c1nnn[nH]1` [Example 209], for which the melting point fell in the range of 205 to 208 °C. Besides, the IC50 in data set [1] is 1372 nM.
`O=C(O)c1cc(Br)c(F)c(F)c1Nc1ccc(I)cc1Cl` [Example 220, 5-Bromo-2-(2-chloro-4-iodo-phenylamino)-3,4-difluoro-benzoic acid]: the IC50 in data set [1] is 29 nM.
